Measured values: patent US20250353849A1, “PURINE COMPOUNDS FOR TREATING DISORDERS” (MARVEL BIOTECHNOLOGY, priority 2021, published 2025)
Like-named read-outs stand apart in the source and are kept apart here.

How the values were obtained:
ADORA2A [1] = target: T1, ADORA2A (Homo sapiens, UniProt P29274); assay: GPCR screening, Calcium Flux (calcium mobilization), Agonist format; type: cell-based; details: read-out: Max Response
Protocol: (§1) Cell lines were expanded from freezer stocks according to standard procedures. Cells were seeded in a total volume of 20 μL into black-walled, clear-bottom, Poly-D-lysine coated 384-well microplates and incubated at 37° C. for the appropriate time prior to testing.
(§2) Assays were performed in 1×Dye Loading Buffer consisting of 1×Dye, 1×Additive A and 2.5 mM Probenecid in HBSS/20 mM Hepes. Probenicid was prepared fresh. Cells were loaded with dye prior to testing. Media was aspirated from cells and replaced with 20 μL Dye Loading Buffer. Cells were incubated for 30-60 minutes at 37° C.
For agonist determination, cells were incubated with sample to induce response. […] Cells were incubated for 30 minutes at room temperature in the dark to equilibrate plate temperature.
Compound activity was analyzed using CBIS data analysis suite (ChemInnovation, CA).
(§3) When the calcium was released, the fluorescence of the dye was increased and the increase was measured in real-time.

ADORA2A [2] = target: T1, ADORA2A; assay: GPCR screening, Calcium Flux (calcium mobilization), Antagonist format; type: cell-based; details: for Emax: read-out: Max Response
Protocol: as §1, §2
For antagonist determination, cells were pre-incubated with sample followed by agonist challenge at the EC80 concentration. Intermediate dilution of sample stocks was performed to generate 3X sample in assay buffer. After dye loading, cells were removed from the incubator and 10 μL 3X sample was added. Cells were incubated for 30 minutes at room temperature in the dark to equilibrate plate temperature. Vehicle concentration was 1%.
Compound antagonist activity was measured on a FLIPR Tetra (MDS). Calcium mobilization was monitored for 2 minutes and 10 μL EC80 agonist in HBSS/20 mM Hepes was added to the cells 5 seconds into the assay.
For antagonist and negative allosteric modulation mode assays, percentage inhibition is calculated using the following formula: […]
as §3
FIGS. 1 and 2 show percent reacted (Y) versus concentration in μM (X). Compounds were tested in antagonist mode with the requested GPCR Biosensor Assay. For the antagonist assay, data was normalized to the maximal and minimal response observed in the presence of EC80 ligand and vehicle.

[3] = Calcium Flux, Antagonist format
[4] = Calcium Flux, Antagonist format, EC80 0.021 μM NECA, read-out: RC50 (Result Type IC50)
[5] = antagonist mode, text to FIGS. 1 and 2, EC80 0.021 μM NECA, read-out: half maximal inhibitory concentration (IC50)

T1 sequence (P29274 whole entry): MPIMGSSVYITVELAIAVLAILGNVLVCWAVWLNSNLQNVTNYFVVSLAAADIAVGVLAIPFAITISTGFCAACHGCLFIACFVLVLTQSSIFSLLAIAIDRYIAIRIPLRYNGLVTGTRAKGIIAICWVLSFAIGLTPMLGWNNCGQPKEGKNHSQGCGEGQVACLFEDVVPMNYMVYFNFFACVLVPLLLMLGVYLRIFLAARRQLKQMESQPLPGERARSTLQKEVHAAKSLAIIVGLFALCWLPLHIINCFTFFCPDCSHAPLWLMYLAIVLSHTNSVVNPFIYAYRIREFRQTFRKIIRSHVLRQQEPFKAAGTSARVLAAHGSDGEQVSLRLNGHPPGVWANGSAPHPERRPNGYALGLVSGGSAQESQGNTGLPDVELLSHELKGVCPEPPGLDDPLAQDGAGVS

Row | Emax (ADORA2A [1]) | Curve Bottom (ADORA2A [2]; [3]) | Curve Top (ADORA2A [2]; [3]) | Hill (ADORA2A [2]; [3]) | IC50 (ADORA2A [2]; [4]) | Emax (ADORA2A [2]; [3]) | IC50 (ADORA2A [2]; [5]) | SMILES
1 | 0% | 7.8668 | 99.957 | 1.7211 | 174 nM | 99.1% | 174 nM | CCn1c(=O)c2c(nc(/C=C/c3ccc(OC)c(OCF)c3)n2C)n(CC)c1=O [Compound 8, (E)-1,3-diethyl-8-(3-(fluoromethoxy)-4-methoxystyryl)-7-methyl-3,7-dihydro-1H-purine-2,6-dione]
2 | 0% | −.090144 | 99.922 | 1.3438 | 95.5 nM | 99.7% | 95.5 nM | CCn1c(=O)c2c(nc(/C=C/c3ccc(OCF)c(OC)c3)n2C)n(CC)c1=O [Compound 9, (E)-1,3-diethyl-8-(4-(fluoromethoxy)-3-methoxystyryl)-7-methyl-3,7-dihydro-1H-purine-2,6-dione]
